From patent publication US4386094A, “4-Lower alkyl-3-phenoxypyridine-1-oxide and a method for its production” (priority 1980, dated 1983)
Read-outs that look alike come from different tables or passages of the source.

Columns and labels:
[1] = tested on: Pentylenetetrazol (Metrazol) seizure; assay: sc Met--Subcutaneous Pentylenetetrazol (Metrazol) Seizure Threshold Test, rats; type: in vivo; conditions: oral
Protocol: (§1) The utility of the aforementioned compound as an anticonvulsant is determined by generating a compound profile using three tests. The tests employed are described in Epilepsia 19 (1978) 409-428 which is incorporated by reference.
(§2) The animal is observed for 30 minutes. Failure to observe even a threshold seizure (a single episode of clonic spasms of at least 5 sec duration) is defined as protection and the results are expressed as: […]
(§3) number of animals protected/number of animals tested.

[2] = tested on: Maximal electroshock seizures; assay: MES--Maximal Electroshock Seizure Test, rats; type: in vivo; conditions: Rattus norvegicus, oral
Protocol: The utility of the aforementioned compound as an anticonvulsant is determined by generating a compound profile using three tests. The tests employed are described in Epilepsia 19 (1978) 409-428 which is incorporated by reference. Maximal electroshock seizures are elicited with a 60 cycle alternating current of 50 mA intensity (5-7 times that necessary to elicit minimal electroshock seizures) delivered for 0.2 sec via corneal electrodes. A drop of 0.9% saline is instilled in the eye prior to application of the electrodes in order to […]. Abolition of the hind limb tonic extension component of the seizure is defined as protection and results are expressed as: number of animals protected/number of animals tested.

[3] = tested on: Picrotoxin; assay: Picrotoxin test, mice; type: in vivo; conditions: intraperitoneal
[4] = Rotorod toxicity test (Tox), rats; type: in vivo; conditions: for TD50: rat, in vivo, po
[5] = tested on: Pentylenetetrazol (Metrazol) seizure; assay: sc Met--Subcutaneous Pentylenetetrazol (Metrazol) Seizure Threshold Test, mice; type: in vivo, male Carworth Farms No. 1 mice; conditions: for ED50 sc Met: intraperitoneal
Protocol: as §1
The tests were performed by the National Institute of Neurological and Communicative Disorders and Stroke and used male Carworth Farms No. 1 mice. The compounds are employed at at least 3 dose levels (30, 100, 300 mg/kg) in the following three tests.
sc Met--Subcutaneous Pentylenetetrazol (Metrazol®) Seizure Threshold Test
as §2, §3

[6] = tested on: Bicuculline; assay: Bicuculline test, mice; type: in vivo
[7] = Rotorod toxicity test (Tox), mice; type: in vivo, male Carworth Farms No. 1 mice
Protocol: The Rotorod test is used to evaluate neurotoxicity. The animal is placed on a 1 inch diameter knurled plastic rod rotating at 6 rpm. Normal mice can remain on a rod rotating at this speed indefinitely. Neurologic toxicity is defined as the failure of the animal to remain on the rod for 1 minute, and is expressed as:

[8] = tested on: Strychnine; assay: Strychnine test, mice; type: in vivo; conditions: intraperitoneal
[9] = tested on: Maximal electroshock seizures; assay: MES--Maximal Electroshock Seizure Test, mice; type: in vivo, male Carworth Farms No. 1 mice; conditions: Mus musculus
Text: Maximal electroshock seizures are elicited with a 60 cycle alternating current of 50 mA intensity (5-7 times that necessary to elicit minimal electroshock seizures) delivered for 0.2 sec via corneal electrodes. A drop of 0.9% saline is instilled in the eye prior to application of the electrodes in order to prevent the death of the animal. Abolition of the hind limb tonic extension component of the seizure is defined as protection and results are expressed as:

[10] = rat, in vivo, po; cited from earlier work
[11] = mouse, in vivo, po; cited from earlier work

Compound	sc Met-ED50 [1]	ED50 [2]	ED50 Picrotoxin [3]	TD50 [4]	ED50 sc Met [5]	sc Met-ED50 ([5]; oral)	ED50 Bicuculline ([6]; intraperitoneal, mice)	ED50 ([9]; oral, read-out: MES-ED50)	other results
Cc1cc[n+]([O-])cc1Oc1ccccc1 [4-METHYL-3-PHENOXYPYRIDINE-1-OXIDE, 4-methyl-3-phenoxypyridine-1-oxide]	Potentiates	11.2 mg/kg	Potentiates	76.1 mg/kg	Potentiates	Potentiates	Potentiates	85.3 mg/kg	TD50 ([7]; mouse, in vivo, ip): 76.2 mg/kg; TD50 ([7]; mouse, in vivo, po): 296 mg/kg; ED50 Strychnine [8]: Ineffective; ED50 ([9]; ip, intraperitoneal, read-out: ED50 MES): 23.2 mg/kg
NC(=O)N1c2ccccc2C=Cc2ccccc21 [CARBAMAZEPINE]	Variable	8.5 mg/kg	–	–	Potentiates	–	–	–	ROTOROD TD50 ([4]; oral, rats): 813.06 mg/kg; Max. Prot. (Bicuculline) ([6]; intraperitoneal, mice, at 50-130 mg/kg): 62.5%
CCC1(c2ccccc2)NC(=O)N(C)C1=O (stereo not drawn) [MEPHENYTOIN]	–	10 mg/kg	–	–	–	–	–	37 mg/kg	ED50 ([1]; Rattus norvegicus): 105 mg/kg; ROTOROD TD50 [10]: 143 mg/kg; ED50 ([5]; Mus musculus, oral): 53 mg/kg; ED50 ([6]; Mus musculus, ip, read-out: ED50 Bicuculline): 124 mg/kg; ROTOROD TD50 [11]: 97.0 mg/kg; TD50 ([7]; intraperitoneal, mice): 153.82 mg/kg; Max. Prot. (Strychnine) ([8]; at 70-150 mg/kg): 50%
O=C1NC(=O)C(c2ccccc2)(c2ccccc2)N1 [PHENYTOIN]	Ineffective	–	Potentiates	> 3000 mg/kg	Potentiates	Ineffective	Potentiates	–	Max. Prot. (Strychnine) ([8]; at 55-100 mg/kg): 50%
